Data reported in ChEMBL document CHEMBL5104166, “Lead optimization of cathepsin K inhibitors for the treatment of Osteoarthritis” (Bioorg Med Chem Lett, 2022).
One block for each compound: values may come before it.

Key:
[1] = target: T1, Cathepsin K (Homo sapiens, UniProt P43235); test: Inhibition of human Cathepsin K
T1 sequence (P43235 whole entry): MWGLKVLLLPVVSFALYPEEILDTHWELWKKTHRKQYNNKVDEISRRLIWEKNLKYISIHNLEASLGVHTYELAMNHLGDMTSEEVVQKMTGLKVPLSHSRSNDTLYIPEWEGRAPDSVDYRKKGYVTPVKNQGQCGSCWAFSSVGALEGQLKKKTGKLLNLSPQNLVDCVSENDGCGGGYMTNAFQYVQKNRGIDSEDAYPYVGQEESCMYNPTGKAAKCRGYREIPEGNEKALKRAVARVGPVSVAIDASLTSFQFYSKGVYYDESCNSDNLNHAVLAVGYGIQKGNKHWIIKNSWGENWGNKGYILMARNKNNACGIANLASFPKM

[2] = species: Homo sapiens; test: Selectivity ratio of IC50 for Cathepsin F (unknown origin) to IC50 for Cathepsin K (unknown origin)
[3] = target: Cathepsin K (Homo sapiens, UniProt P43235); test: Inhibition of humanized-rabbit Cathepsin K
[4] = Intrinsic clearance in rat liver microsomes; type: ADME, Microsome; conditions: read-out: CLH
[5] = target: Cathepsin (L and K) (Homo sapiens) (UniProt P43235+P07711); test: Selectivity ratio of IC50 for Cathepsin L (unknown origin) to IC50 for Cathepsin K (unknown origin); type: protein assay
Sequence of Cathepsin (L and K) (Homo sapiens) (P07711 whole entry, looked up, one chain of several): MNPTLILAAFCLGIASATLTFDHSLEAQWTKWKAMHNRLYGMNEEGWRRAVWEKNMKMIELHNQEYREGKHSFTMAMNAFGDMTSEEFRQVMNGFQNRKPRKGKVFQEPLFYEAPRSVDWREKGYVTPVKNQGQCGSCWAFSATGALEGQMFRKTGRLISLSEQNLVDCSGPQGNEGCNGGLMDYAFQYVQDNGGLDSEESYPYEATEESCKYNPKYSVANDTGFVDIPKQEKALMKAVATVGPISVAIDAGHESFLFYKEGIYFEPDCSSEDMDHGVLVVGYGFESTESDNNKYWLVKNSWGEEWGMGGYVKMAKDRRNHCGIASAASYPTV

[6] = target: Cathepsin (B and K) (Homo sapiens) (UniProt P43235+P07858); test: Selectivity ratio of IC50 for Cathepsin B (unknown origin) to IC50 for Cathepsin K (unknown origin); type: protein assay
[7] = target: Cathepsin (S and K) (Homo sapiens) (UniProt P25774+P43235); test: Selectivity ratio of IC50 for Cathepsin S (unknown origin) to IC50 for Cathepsin K (unknown origin); type: protein assay
Sequence of Cathepsin (S and K) (Homo sapiens) (P25774 whole entry, looked up, one chain of several): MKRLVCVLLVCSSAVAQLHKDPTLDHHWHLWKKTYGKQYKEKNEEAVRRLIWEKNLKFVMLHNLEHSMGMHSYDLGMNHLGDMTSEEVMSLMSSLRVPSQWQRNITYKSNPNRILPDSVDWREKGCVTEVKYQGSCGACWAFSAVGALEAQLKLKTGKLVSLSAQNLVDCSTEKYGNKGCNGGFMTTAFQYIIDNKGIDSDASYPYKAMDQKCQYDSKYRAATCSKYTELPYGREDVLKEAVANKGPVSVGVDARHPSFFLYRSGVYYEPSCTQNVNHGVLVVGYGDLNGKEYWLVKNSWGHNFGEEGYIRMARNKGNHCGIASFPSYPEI

[8] = target: Cathepsin (V and K) (Homo sapiens) (UniProt P43235+O60911); test: Selectivity ratio of IC50 for Cathepsin V (unknown origin) to IC50 for Cathepsin K (unknown origin); type: protein assay
Sequence of Cathepsin (V and K) (Homo sapiens) (O60911 whole entry, looked up, one chain of several): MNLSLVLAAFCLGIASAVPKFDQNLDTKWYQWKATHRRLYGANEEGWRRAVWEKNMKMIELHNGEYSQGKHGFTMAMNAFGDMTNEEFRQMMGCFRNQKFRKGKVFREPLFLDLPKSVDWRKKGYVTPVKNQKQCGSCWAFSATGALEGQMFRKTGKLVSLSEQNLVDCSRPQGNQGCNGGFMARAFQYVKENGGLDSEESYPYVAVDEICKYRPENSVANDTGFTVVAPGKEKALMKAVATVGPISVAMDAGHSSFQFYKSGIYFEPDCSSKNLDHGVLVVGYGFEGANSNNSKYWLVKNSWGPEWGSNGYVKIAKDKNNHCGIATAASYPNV

[9] = Clearance in rat; type: ADME; conditions: in vivo
[10] = Clearance in dog; type: ADME, Canis lupus familiaris; conditions: in vivo
[11] = Clearance in rhesus monkey; type: ADME, Macaca mulatta; conditions: in vivo
[12] = Half life in rat; type: ADME; conditions: in vivo
[13] = Half life in dog; type: ADME, Canis lupus familiaris; conditions: in vivo
[14] = Half life in rhesus monkey; type: ADME, Macaca mulatta; conditions: in vivo
[15] = Oral bioavailability in rat; type: ADME, organism-based; conditions: in vivo
[16] = Oral bioavailability in dog; type: ADME, organism-based, Canis lupus familiaris; conditions: in vivo
[17] = Oral bioavailability in rhesus monkey; type: ADME, organism-based, Macaca mulatta; conditions: in vivo
[18] = Plasma protein binding in dog assessed as unbound fraction at 15 mg/kg, po for 4 days; type: ADME, organism-based, Canis lupus familiaris; conditions: time 4 day
[19] = Plasma concentration in dog at 15 mg/kg, po for 4 days; type: ADME, organism-based, Canis lupus familiaris; conditions: time 4 day
[20] = Unbound plasma concentration in dog at 15 mg/kg, po for 4 days; type: ADME, organism-based, Canis lupus familiaris; conditions: in vivo, 96 h, time 4 day
[21] = Drug concentration in dog cartilage at 15 mg/kg, po for 4 days; type: ADME, organism-based, Canis lupus familiaris, Cartilage tissue; conditions: time 4 day, read-out: Ct
[22] = Unbound drug concentration in dog cartilage at 15 mg/kg, po for 4 days; type: ADME, organism-based, Canis lupus familiaris, Cartilage tissue; conditions: in vivo, 96 h, time 4 day
[23] = tested on: Canis familiaris; test: Anti-osteoarthritic activity in dog assessed as reduction in uCTX-1 level at 0.03 mg/kg, po for 4 days (reference value: 26.9%); type: functional; conditions: Canis lupus familiaris, 96 h, time 4 day
[24] = tested on: Canis familiaris; test: Anti-osteoarthritic activity in dog assessed as reduction in uCTX-1 level at 0.1 mg/kg, po for 4 days (reference value: 26.9%); type: functional; conditions: Canis lupus familiaris, 96 h, time 4 day
[25] = tested on: Canis familiaris; test: Anti-osteoarthritic activity in dog assessed as reduction in uCTX-1 level at 0.3 mg/kg, po for 4 days (reference value: 26.9%); type: functional; conditions: Canis lupus familiaris, 96 h, time 4 day
[26] = tested on: Canis familiaris; test: Anti-osteoarthritic activity in dog assessed as reduction in uCTX-1 level at 15 mg/kg, po for 4 days (reference value: 26.9%); type: functional; conditions: Canis lupus familiaris, 96 h, time 4 day

IC50 [1]: 6.9 nM
Ratio IC50 [2]: 1280
Compound: N#CC1(NC(=O)[C@@H]2CCCC[C@H]2c2nn(CC(F)(F)F)cc2-c2ccc(N3CCS(=O)(=O)CC3)cc2)CC1

IC50 [3]: 0.5 nM
Ratio IC50 [2]: 50
CLint scaled [4]: < 30 mL/min/kg
Compound: N#CC1(NC(=O)[C@@H]2CC(F)(F)CC[C@H]2c2nn(-c3ccc(F)cc3)cc2-c2ccc(N3CCS(=O)(=O)CC3)cc2)CC1

IC50 [3]: 1 nM
Ratio IC50 [2]: 62
Compound: N#CC1(NC(=O)[C@@H]2CC(F)(F)CC[C@H]2c2nn(CC(F)(F)F)cc2-c2ccc(-c3ncco3)cc2)CC1

IC50 [1]: 0.5 nM
Ratio IC50 [2]: 1000
CLint scaled [4]: 40.5 mL/min/kg
Compound: N#CC1(NC(=O)[C@@H]2CCCC[C@H]2c2nn(-c3ccc(F)cc3)cc2-c2ccc(N3CCS(=O)(=O)CC3)cc2)CC1

IC50 [1]: 0.7 nM
Ratio IC50 [2]: 716
CLint scaled [4]: 244 mL/min/kg
Compound: COc1cccc(-n2cc(-c3ccc(N4CCS(=O)(=O)CC4)cc3)c([C@@H]3CCCC[C@H]3C(=O)NC3(C#N)CC3)n2)c1

IC50 [1]: 5.3 nM
Ratio IC50 [2]: 1180
Compound: N#CC1(NC(=O)[C@@H]2CCCC[C@H]2c2nn(CC3CC3)cc2-c2ccc(N3CCS(=O)(=O)CC3)cc2)CC1

IC50 [1]: 0.5 nM
Ratio IC50 [5]: > 20000
Ratio IC50 [6]: > 20000
Ratio IC50 [7]: > 20000
Ratio IC50 [2]: 1460
Ratio IC50 [8]: > 20000
CLint scaled [4]: < 30 mL/min/kg
clearance [9]: 13 mL/min/kg
clearance [10]: 3.1 mL/min/kg
clearance [11]: 18.5 mL/min/kg
half-life [12]: 90 min
half-life [13]: 246 min
half-life [14]: 138 min
bioavailability [15]: 33%
bioavailability [16]: 38%
bioavailability [17]: 55%
fraction unbound at 96 h [18]: 0.047
concentration at 96 h [19]: 3.98 µM
Cp(f) [20]: 0.19 µM
concentration at 96 h [21]: 220 nM
Drug uptake(free) [22]: 0.21 µM
Compound: N#CC1(NC(=O)[C@@H]2CCCC[C@H]2c2oc(-c3ccc(F)cc3)nc2-c2ccc(N3CCS(=O)(=O)CC3)cc2)CC1
inhibition in vivo at 0.03 mg/kg [23]: 4.5%
inhibition in vivo at 0.1 mg/kg [24]: 47.7%
inhibition in vivo at 0.3 mg/kg [25]: 81.1%
inhibition in vivo at 15 mg/kg [26]: 91.4%

IC50 [1]: 0.7 nM
Ratio IC50 [2]: 380
Compound: N#CC1(NC(=O)[C@@H]2CC(F)(F)CC[C@H]2c2nn(CC(F)(F)F)cc2-c2ccc(N3CCS(=O)(=O)CC3)cc2)CC1

IC50 [3]: 0.5 nM
Ratio IC50 [2]: 314
Compound: N#CC1(NC(=O)[C@@H]2CC(Cl)(Cl)CC[C@H]2c2nn(CC(F)(F)F)cc2-c2ccc(N3CCS(=O)(=O)CC3)cc2)CC1

IC50 [1]: 0.6 nM
Ratio IC50 [2]: 1430
CLint scaled [4]: 55.9 mL/min/kg
Compound: N#CC1(NC(=O)[C@@H]2CCCC[C@H]2c2nc(-c3ccc(F)cc3)sc2-c2ccc(N3CCS(=O)(=O)CC3)cc2)CC1

IC50 [3]: 1 nM
Ratio IC50 [2]: 246
Compound: N#CC1(NC(=O)[C@@H]2CC(Cl)(Cl)CC[C@H]2c2nn(CC(F)(F)F)cc2-c2ccc(C(=O)N3CCOCC3)cc2)CC1

IC50 [3]: 0.6 nM
Ratio IC50 [2]: 82
Compound: CS(=O)(=O)N1CC(c2ccc(-c3cn(CC(F)(F)F)nc3[C@@H]3CCC(F)(F)C[C@H]3C(=O)NC3(C#N)CC3)cc2)C1

IC50 [1]: 1.8 nM
Ratio IC50 [5]: 1710
Ratio IC50 [6]: 5560
Ratio IC50 [7]: 1360
Ratio IC50 [2]: 40
Ratio IC50 [8]: 714
Compound: CS(=O)(=O)c1ccc(-c2cn(CC(F)(F)F)nc2[C@@H]2CCC(Cl)(Cl)C[C@H]2C(=O)NC2(C#N)CC2)cc1
